Earlier results, collected in patent publication US5008416A, “Organogermanium compound, process for the preparation of same as well as use thereof” (Sanwa Kagaku Kenkyusho Co., Ltd., priority 1989, dated 1991).

Experiments:
[1] = Cancer Res., Vol. 42, page 2852 (1982); cited from earlier work
[2] = Jap. Pat. No. Sho 61-151123(A), U.S. Pat. No. 4,889,715, EP 0186505; cited from earlier work

| Molecule | Anti-cancer or antitumor activity (result in words) [1] | Immunomodulating activity (result in words) [2] |
| --- | --- | --- |
| C[CH2][Ge]1([CH2]C)[CH2]CC2(CCN(CCCN(C)C)C2)C[CH2]1 [Spirogermanium] | shows an anti-cancer or antitumor activity | – |
| 3-oxygermylpropionic acid polymer | – | shows an excellent immunomodulating activity |
